Test in all cases: DTP human tumour cell line panel, 48 h
Test [1] relates to COLO 205.
The test system of test [2] is SK-OV-3.
Test [3] relates to UACC-62.
For test [4], the system named is MDA-N.
The test system of test [5] is LOX IMVI.
The subject of test [6] is MOLT-4.
Test [7] deals with SF-295.
Test [8] has as its system SN12C.
For test [9], the system named is SF-268.
Test [10] has as its system RPMI-8226.
Test [11] relates to SNB-75.
Test [12] concerns A549.
The subject of test [13] is TK-10.
In test [14] the test system is EKVX.
In test [15] the test system is Malme-3M.
The subject of test [16] is SW-620.
Test [17] concerns NCI-H460.
Test [18] relates to SF-539.
Test [19] relates to HCC 2998.

The source of these data is ChEMBL document CHEMBL1201862, “PubChem BioAssay data set” (2004).

Each structure is given as a SMILES string.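 Interpolation was linear, between the two tested concentrations surrounding the appropriate level; five concentrations were tested over 48 hours in 96-well plates. GI50: concentration for 50% inhibition of growth.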 The source made the active and inactive calls. Cut-off read from the data, not from the text of the source: active = GI50 up to about 1.1 µM and inactive = higher.

Usually GI50 stands for the concentration that inhibits growth by half. For `Cc1ccc(/N=N/c2c(O)c(C(=O)O)cc3ccccc23)c(S(=O)(=O)O)c1`, the GI50 in test [1], in test [2], in test [3], in [4], in [5] and in [6] was > 100 µM (inactive) each time. Also, the GI50 in [7], in [8], in test [9], in test [10], in test [11] and in test [12] was > 100 µM (inactive) each time. The GI50 in test [13], in test [14], in test [15] and in [16] was > 100 µM (inactive) in each case.
Turning to `CCC1CC(=O)N(SCC(N)C(=O)O)C1=O` (stereo unspecified), the GI50 in test [1], in [17], in test [2], in [18], in test [3] and in test [4] was > 100 µM (inactive) each time. The GI50 in test [5], in test [7], in test [8], in [9], in test [10] and in test [11] was > 100 µM (inactive) in each case. Also, the GI50 in test [12], in [13], in [14], in [15] and in [16] was > 100 µM (inactive) in each case.
For `CCOC(=O)c1nc2cc(N3CCOCC3)c(F)cc2[nH]c1=O`, the GI50 was > 100 µM (inactive) in [1]; > 100 µM (inactive) in [17]; > 100 µM (inactive) in test [2]; > 100 µM (inactive) in [18]; 92.9 µM (inactive) in [3]; > 100 µM (inactive) in test [4]. Moreover, the GI50 is > 100 µM (inactive) in [6]; 83.4 µM (inactive) in [7]; > 100 µM (inactive) in test [8]; > 100 µM (inactive) in [9]; > 100 µM (inactive) in test [10]; 52 µM (inactive) in [11]. Also, the GI50 in [12] was > 100 µM (inactive); in [13], > 100 µM (inactive); in test [14], 4.67 µM (inactive); in test [15] it was > 100 µM (inactive); in test [19] it was > 100 µM (inactive); in [16], > 100 µM (inactive).
In the case of `Cc1cc(OCc2nn(CN3CCN(C)CC3)c(=S)n2/N=C/c2ccc(-c3ccc(Cl)cc3Cl)o2)ccc1Cl`, the GI50 in test [17] was 67.8 µM (inactive); in test [2] it was > 100 µM (inactive); in [18], > 100 µM (inactive); in [4], 39.3 µM (inactive); in [5] it was 80.7 µM (inactive); in [6], 67.8 µM (inactive). Moreover, the GI50 is 84.1 µM (inactive) in test [7]; 33.1 µM (inactive) in test [9]; 17.1 µM (inactive) in test [10]; 75.2 µM (inactive) in test [13]; > 100 µM (inactive) in [14]; 16.1 µM (inactive) in [19]. In [16], the GI50 was 15.7 µM (inactive).
For the molecule `Cc1ccc(CCCCCOc2ccc(C3=NCCO3)cc2)s1`, the GI50 was > 100 µM (inactive) in [1]; > 100 µM (inactive) in test [17]; > 100 µM (inactive) in [2]; > 100 µM (inactive) in [3]; 5.68 µM (inactive) in test [4]; > 100 µM (inactive) in test [6]. Besides, the GI50 in test [7], in [8], in test [9], in test [10], in test [11] and in [12] was > 100 µM (inactive) in each case. Besides, the GI50 in [13], in test [14], in test [15], in test [19] and in [16] was > 100 µM (inactive) throughout.
Take `O=C1NN=C(c2c[nH]c3ccccc23)CC1NCc1ccccc1` (stereo unspecified): the GI50 in test [1], in [17], in [2], in [18], in [3] and in [4] was > 100 µM (inactive) throughout. Also, the GI50 in test [5], in test [6], in test [7], in [8], in [9] and in [10] was > 100 µM (inactive) in each case. Also, the GI50 in test [11], in test [12], in [13], in test [15] and in test [16] was > 100 µM (inactive) each time.
As to `CC(=O)NC1=CC(=O)C=C(Cl)C1=O`, the GI50 in test [1] was 39.3 µM (inactive); in test [17], > 100 µM (inactive); in [2], > 100 µM (inactive); in test [18] it was > 100 µM (inactive); in [3], 37.5 µM (inactive); in test [4], 16.8 µM (inactive). Moreover, the GI50 in test [6] was 22.2 µM (inactive); in test [7] it was > 100 µM (inactive); in test [8] it was > 100 µM (inactive); in [9], > 100 µM (inactive); in [10], 22.6 µM (inactive); in test [11] it was > 100 µM (inactive). Besides, the GI50 in [12] is > 100 µM (inactive); in [13], > 100 µM (inactive); in test [14] it was > 100 µM (inactive); in test [15], 25.7 µM (inactive); in test [19] it was > 100 µM (inactive); in [16], 19 µM (inactive).
Consider `CS(=O)(=O)CCC(N)P(=O)(O)O` (stereo unspecified), for which the GI50 in test [1], in test [17], in test [2], in test [3], in test [4] and in [5] was > 100 µM (inactive) throughout. In addition, the GI50 in test [6], in test [7], in test [8], in [9], in test [10] and in test [11] was > 100 µM (inactive) in each case. In addition, the GI50 in test [12], in [13], in test [14], in [15] and in [16] was > 100 µM (inactive) in each case.
Regarding `O=C(O)CO[C@@]12C#C/C=C\C#C[C@@H]3N(C(=O)Oc4ccccc4)c4ccccc4[C@]14O[C@@]34CCC2`, the GI50 was 20 µM (inactive) in test [1]; 36.4 µM (inactive) in [17]; 6.75 µM (inactive) in test [2]; 31.4 µM (inactive) in test [18]; 11.5 µM (inactive) in [3]; 14.9 µM (inactive) in test [4]. For the same molecule, the GI50 in test [5] was 40.5 µM (inactive); in test [6], 28.8 µM (inactive); in test [7] it was > 10 µM (inactive); in test [8] it was 30.5 µM (inactive); in [9] it was 14.3 µM (inactive); in test [10], 31.6 µM (inactive). Further, the GI50 in test [12] is > 100 µM (inactive); in [13] it was > 100 µM (inactive); in test [14], > 100 µM (inactive); in test [19], 12.5 µM (inactive); in test [16] it was 47.6 µM (inactive).
As for `C/C1=C/C(=O)O[C@@H]2C[C@@H](CC[C@H](C)/C=C\C=C\CC1)O[C@@](O)([C@@H]1CSC(=O)N1)C2` [LATRUNCULIN A], the GI50 in test [1] is 0.18 µM (active); in test [17], 0.8 µM (active); in test [2] it was > 4.16 µM (inactive); in test [18], 0.171 µM (active); in test [3] it was 0.348 µM (active); in test [4], > 5.07 µM (inactive). The GI50 in test [6] was > 5.83 µM (inactive); in test [7] it was 0.262 µM (active); in test [8] it was 0.428 µM (active); in [9], 0.305 µM (active); in test [10] it was > 10 µM (inactive); in test [11] it was 0.075 µM (active). Moreover, the GI50 in test [12] is 0.564 µM (active); in [13], 0.264 µM (active); in [14], 0.74 µM (active); in [15] it was 0.895 µM (active); in [19], > 2.97 µM (inactive).
Consider `O=C(CN1c2ccccc2Sc2ccccc21)n1cnc2ccccc21`, for which the GI50 in [1] was 92.3 µM (inactive); in test [17], 97.5 µM (inactive); in [2], 47.1 µM (inactive); in test [18], > 100 µM (inactive); in [3], > 100 µM (inactive); in [4], > 100 µM (inactive). In addition, the GI50 is 95.3 µM (inactive) in [5]; 51.4 µM (inactive) in test [6]; > 100 µM (inactive) in [7]; > 100 µM (inactive) in test [8]; > 100 µM (inactive) in test [9]; 90.4 µM (inactive) in test [10]. In addition, the GI50 in test [11] is > 100 µM (inactive); in test [12], > 100 µM (inactive); in test [13], > 100 µM (inactive); in [14], > 100 µM (inactive); in test [15], 74.8 µM (inactive); in test [16], > 100 µM (inactive).
For the molecule `CCOC(=O)/C(=C\c1cn(C(C)=O)c2ccccc12)P(C)(=O)OCC` (stereo unspecified), the GI50 is 54.5 µM (inactive) in [1]; 27.1 µM (inactive) in test [2]; 19.8 µM (inactive) in [18]; 60 µM (inactive) in test [3]; 24.8 µM (inactive) in test [4]; > 100 µM (inactive) in test [6]. Moreover, the GI50 in [7] was 41.8 µM (inactive); in test [8], 26.8 µM (inactive); in test [9], 21.1 µM (inactive); in test [10] it was > 100 µM (inactive); in [11], 11 µM (inactive); in test [12] it was 37.1 µM (inactive). Further, the GI50 is 33.3 µM (inactive) in [14], 17.3 µM (inactive) in test [15], 27.9 µM (inactive) in test [19] and 39.2 µM (inactive) in test [16].
